Measurements as given in patent publication US20250248398A1, “TICK REPELLENT” (priority 2024, published 2025).

Columns and labels:
Ixodes scapularis = assay: two-choice still-air olfactometer (3D-printed), 30 minutes, synthetic fungal metabolites; format: in vivo; details: female I. scapularis
Protocol: All behavioral responses of ticks to experimental substrates were tested in two-choice still-air olfactometers (150 mm×50 mm×17 mm; FIGS. 1a, 1b, 1c). […] Each olfactometer had three inset circular chambers (with an inner diameter of 28 mm) interconnected with inset linear paths (24 mm×10 mm×7 mm).
Treatment and control test stimuli were assigned to lateral chambers, alternating the position of stimuli between replicates to account for potential side bias. To initiate an experimental replicate, a single tick was introduced into the central chamber, briefly exposed to human exhale to stimulate movement, and then allowed 30 minutes to respond. […] Olfactometers were sealed with parafilm and a rectangular lid (150 mm×50 mm×3 mm).
A tick was considered a responder if it was found in a lateral chamber after 30 minutes. After each experiment, olfactometers were cleaned with 70% ethanol and hexane. At the end of each experimental day, olfactometers were washed with Sparkleen (Thermo Fisher Scientific, MA, U.S.A), rinsed with distilled water, and air-dried.
Similarly, geosmin dissolved in 25 μL of methanol was applied at doses of 1.0 ng (Exp. 4), 0.1 ng (Exp. 5), and 0.01 ng (Exp. 6), using 25 μL of methanol as the control stimulus. In each experimental replicate, methanol was allowed 5 minutes to evaporate before a tick was introduced into the central olfactometer chamber.
In each experiment, a watch glass (28 mm diameter) fitted with a congruent piece of filter paper was placed in lateral olfactometer chambers, as shown in FIG. 1. In experiment 7, 1 ng of 2-MIB was dissolved in 25 μL of methanol and applied to the treatment filter paper, and 25 μL of methanol was applied to the corresponding control filter paper. In experiment 8, 1 ng of L-borneol and 1 ng of D-borneol were each dissolved in 25 μL of methanol and applied to the treatment filter paper, and 50 μL of methanol was applied to the control filter paper. In each experimental replicate, methanol was allowed 5 minutes to evaporate before a tick was introduced into the central olfactometer chamber.
In each experimental replicate, methanol was allowed 5 minutes to evaporate before a tick was introduced into the central olfactometer chamber.

[1] = system: American dog ticks, Dermacentor variabilis; assay: two-choice still-air olfactometer (3D-printed), 30 minutes; format: in vivo; details: female D. variabilis, 1 ng in 25 μL methanol
Protocol: (§1) All behavioral responses of ticks to experimental substrates were tested in two-choice still-air olfactometers (150 mm×50 mm×17 mm; FIGS. 1a, 1b, 1c). Still-air, instead of moving-air, olfactometers were used because off-host ticks encounter fungi in soil microhabitats such as leaf litter where there is typically little, if any, air movement. Each olfactometer had three inset circular chambers (with an inner diameter of 28 mm) interconnected with inset linear paths (24 mm×10 mm×7 mm).
(§2) Olfactometers were modeled and 3D-printed using Autodesk Fusion 360 (Version 13.2.0.9150), Creality Slicer (Version 4.8.2), and an Ender-3 Pro 3D printer (Creality, Shengzhen, China). Olfactometers were printed using translucent 1.75 mm (±0.03 mm dimensional accuracy) polylactic acid (PLA) filament ([…], OH, U.S.A.). To reduce the porosity of 3D-printed olfactometers, XTC-3D brush-on epoxy coating was applied (Smooth-On Inc., PA, U.S.A.).
(§3) Treatment and control test stimuli were assigned to lateral chambers, alternating the position of stimuli between replicates to account for potential side bias. To initiate an experimental replicate, a single tick was introduced into the central chamber, briefly exposed to human exhale to stimulate movement, and then allowed 30 minutes to respond. […]

[2] = system: lone star ticks, Amblyomma americanum; assay: as above; format: in vivo; details: female A. americanum, 1 ng in 25 μL methanol
Protocol: as §1, §2, §3

I. scapularis tick = assay: two-choice still-air Pyrex glass olfactometer, 20 hours, natural and synthetic ant metabolites; set-up: species or system Ixodes scapularis; details: in vivo
Protocol: Treatment and control stimuli were assigned to the two lateral chambers, alternating the position of stimuli between replicates to account for potential side bias. Both lateral chambers were also fitted with a wet cotton ball (Thermo Fisher Scientific, MA, U.S.A.) to ensure sufficiently high humidity.
To initiate an experimental replicate, a single I. scapularis tick was introduced into the central chamber, briefly exposed to human exhale to stimulate movement, and then allowed 20 hours to respond. A tick was considered a responder if it was found in a lateral chamber or in a connecting glass tube closer to a lateral chamber than the central chamber, as shown in FIG. 2. To prevent tick escape, all three chambers of the olfactometer were sealed with Parafilm (Bemis, WI, U.S.A.) for the duration (i.e., 20 hours) of the experiment.
To minimize the potential for tick escape, and to prevent ticks from sensing cues (e.g., convective heat, infrared radiation, CO2) originating from experimentalists that initiated or scored experiments, olfactometers (n=10-15) were housed in a plexiglass box (112 cm×24 cm×14 cm). Experiments were run under a 14:10 light/dark cycle, thus enabling ticks to respond to test stimuli while maintaining a circadian rhythm. […]

[3] = dose 1 ng in 25 μL methanol on filter paper

Row | Compound | deterrence of ticks (treatment vs methanol control) (Ixodes scapularis; dose 0.01 ng in 25 μL methanol) | deterrence of ticks (treatment vs methanol control) (Ixodes scapularis; dose 0.1 ng in 25 μL methanol) | deterrence of ticks (treatment vs methanol control) (Ixodes scapularis; [3]) | deterrence of ticks (treatment vs methanol control) [1] | deterrence of ticks (treatment vs methanol control) [2] | deterrence of ticks (treatment vs DCM control) (I. scapularis tick)
1 | CC1(C)[C@@H]2CC[C@@]1(C)[C@](C)(O)C2 [2-MIB, 2-methylisoborneol] | not deterred | moderately deterred | strongly deterred | deterred | deterred | –
2 | O=CO [formic acid] | – | – | – | – | – | deterred neither
3 | CC1CCCC2(C)CCCCC12O (stereo not drawn) [geosmin, reference compound] | not deterred | not deterred | not deterred | – | – | –
